Literature values as cited in patent US6288110A, “Pharmaceutical compositions comprising disulfiram” (Yeda Research and Development Co Ltd., priority 1998, dated 2001).

Settings: non-enzymatic degradation; cited from earlier work

## CCN(CC)C(=S)S [DDC, diethyldithiocarbamate]
  further metabolism of DDC: non-enzymatic degradation to diethylamine (DEA)
